Measurements published in ChEMBL document CHEMBL1201862, “PubChem BioAssay data set” (2004).
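Cells were grown in 96-well plates and exposed to each compound for 48 hours at five concentrations; endpoints were interpolated linearly between bracketing concentrations, or set to the highest concentration if not reached. Here, GI50 denotes the concentration required for 50% inhibition of growth.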 Calls of active or inactive are those of the source. Rule as the data show it: active = GI50 up to about 1.1 µM and inactive = higher.

Tests used:
Test in all cases: NCI anticancer screen, dose series, 48 h
DLD-1 = tested on: DLD-1
DMS-273 = tested on: DMS-273
HOP-18 = tested on: HOP-18
KM-20L2 = tested on: KM-20L2
LXFL 529 = tested on: LXFL 529
M19-MEL = tested on: M19-MEL
RXF 631 = tested on: RXF 631
SNB-78 = tested on: SNB-78
XF498 = tested on: XF498

Measured: GI50

COC(=O)NC1C(C)OC(OC2C/C=C(/C)C3C=CC4C(OC5CC(OC6CC(O)C(OC7CC(O)C(OC)C(C)O7)C(C)O6)C(O)C(C)O5)C(C)CC(C)C4C3(C)C(=O)C3=C(O)C4(CC(C)C(CO)=CC4/C=C\2C)OC3=O)CC1(C)[N+](=O)[O-] (configuration not stated)
inactive: DLD-1 12.7 µM | DMS-273 11.4 µM | HOP-18 15.1 µM | KM-20L2 17.1 µM | LXFL 529 2.7 µM | M19-MEL 4.43 µM | RXF 631 21 µM | SNB-78 5.47 µM | XF498 10.6 µM

N#Cc1c(-c2ccc(Cl)c(Cl)c2)c(-c2ccc(Cl)c(Cl)c2)nn(CC(=O)O)c1=O
inactive: DLD-1 63.5 µM | DMS-273 44.7 µM | HOP-18 64.3 µM | KM-20L2 24.2 µM | LXFL 529 72.4 µM | M19-MEL > 100 µM | RXF 631 64.9 µM | SNB-78 > 100 µM | XF498 27.9 µM

CCOC(=O)c1c[nH]c2c(ccc3nn(C)nc32)c1=O
inactive: DLD-1 50.4 µM | DMS-273 19.9 µM | HOP-18 > 100 µM | KM-20L2 > 100 µM | LXFL 529 > 100 µM | M19-MEL > 100 µM | RXF 631 > 100 µM | SNB-78 15.5 µM | XF498 > 100 µM
